Test results published in ChEMBL document CHEMBL1201862, “PubChem BioAssay data set” (2004).
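Test compounds were applied to cells in 96-well plates for 48 hours at 5 doses. GI50 marks 50% less growth.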 Calls of active or inactive are those of the source. No stated cut-off is given here; in the data, active = GI50 up to about 1.1 µM and inactive = higher.

Legend:
Experiment in all cases: NCI tumour cell line growth inhibition, 48 h
786-0 = test system: 786-0
A498 = test system: A498
A549 = test system: A549
ACHN = test system: ACHN
CAKI-1 = test system: CAKI-1
CCRF-CEM = test system: CCRF-CEM
COLO 205 = test system: COLO 205
DLD-1 = test system: DLD-1
DMS-114 = test system: DMS-114
DMS-273 = test system: DMS-273
EKVX = test system: EKVX
HCC 2998 = test system: HCC 2998
HCT-116 = test system: HCT-116
HCT-15 = test system: HCT-15
HL-60 = test system: HL-60
HOP-18 = test system: HOP-18
HOP-62 = test system: HOP-62
HOP-92 = test system: HOP-92
HT-29 = test system: HT-29
IGROV-1 = test system: IGROV-1
K562 = test system: K562
KM-20L2 = test system: KM-20L2
KM12 = test system: KM12
LOX IMVI = test system: LOX IMVI
LXFL 529 = test system: LXFL 529
M14 = test system: M14
M19-MEL = test system: M19-MEL
MOLT-4 = test system: MOLT-4
Malme-3M = test system: Malme-3M
NCI-H226 = test system: NCI-H226
NCI-H23 = test system: NCI-H23
NCI-H460 = test system: NCI-H460
NCI-H522 = test system: NCI-H522
OVCAR-3 = test system: OVCAR-3
OVCAR-4 = test system: OVCAR-4
OVCAR-5 = test system: OVCAR-5
OVCAR-8 = test system: OVCAR-8
RPMI-8226 = test system: RPMI-8226
RXF 393 = test system: RXF 393
RXF 631 = test system: RXF 631
SF-268 = test system: SF-268
SF-295 = test system: SF-295
SF-539 = test system: SF-539
SK-MEL-28 = test system: SK-MEL-28
SK-MEL-2 = test system: SK-MEL-2
SK-MEL-5 = test system: SK-MEL-5
SK-OV-3 = test system: SK-OV-3
SN12C = test system: SN12C
SNB-19 = test system: SNB-19
SNB-75 = test system: SNB-75
SNB-78 = test system: SNB-78
SR = test system: SR
SW-620 = test system: SW-620
TK-10 = test system: TK-10
U-251 = test system: U-251
UACC-257 = test system: UACC-257
UACC-62 = test system: UACC-62
UO-31 = test system: UO-31
XF498 = test system: XF498

COC(=O)c1cccc2cccc(C(=O)Nc3ccc(C)cc3C)c12
GI50 (786-0): > 100 µM (inactive)
GI50 (A498): 33 µM (inactive)
GI50 (A549): > 100 µM (inactive)
GI50 (ACHN): 67.1 µM (inactive)
GI50 (CAKI-1): > 100 µM (inactive)
GI50 (CCRF-CEM): 3.72 µM (inactive)
GI50 (COLO 205): 69.5 µM (inactive)
GI50 (DLD-1): > 100 µM (inactive)
GI50 (DMS-114): > 100 µM (inactive)
GI50 (DMS-273): > 100 µM (inactive)
GI50 (EKVX): > 100 µM (inactive)
GI50 (HCC 2998): > 100 µM (inactive)
GI50 (HCT-116): > 100 µM (inactive)
GI50 (HCT-15): > 100 µM
GI50 (HL-60): 1.08 µM (active)
GI50 (HOP-18): 65.5 µM (inactive)
GI50 (HOP-62): > 100 µM (inactive)
GI50 (HOP-92): 61.8 µM (inactive)
GI50 (HT-29): 91 µM (inactive)
GI50 (IGROV-1): > 100 µM (inactive)
GI50 (K562): > 100 µM (inactive)
GI50 (KM-20L2): > 100 µM (inactive)
GI50 (KM12): > 100 µM (inactive)
GI50 (LOX IMVI): > 100 µM (inactive)
GI50 (LXFL 529): > 100 µM (inactive)
GI50 (M14): > 100 µM (inactive)
GI50 (M19-MEL): > 100 µM (inactive)
GI50 (MOLT-4): 48.5 µM (inactive)
GI50 (Malme-3M): > 100 µM (inactive)
GI50 (NCI-H226): > 100 µM (inactive)
GI50 (NCI-H23): > 100 µM (inactive)
GI50 (NCI-H460): > 100 µM (inactive)
GI50 (NCI-H522): 70.1 µM (inactive)
GI50 (OVCAR-3): 72.8 µM (inactive)
GI50 (OVCAR-4): 93.8 µM (inactive)
GI50 (OVCAR-5): > 100 µM (inactive)
GI50 (OVCAR-8): > 100 µM (inactive)
GI50 (RPMI-8226): 22.5 µM (inactive)
GI50 (RXF 393): 39.3 µM (inactive)
GI50 (RXF 631): > 100 µM (inactive)
GI50 (SF-268): > 100 µM (inactive)
GI50 (SF-295): > 100 µM (inactive)
GI50 (SF-539): 96.4 µM (inactive)
GI50 (SK-MEL-28): > 100 µM (inactive)
GI50 (SK-MEL-2): > 100 µM (inactive)
GI50 (SK-MEL-5): > 100 µM (inactive)
GI50 (SK-OV-3): > 100 µM (inactive)
GI50 (SN12C): > 100 µM (inactive)
GI50 (SNB-19): > 100 µM (inactive)
GI50 (SNB-75): > 100 µM (inactive)
GI50 (SNB-78): > 100 µM (inactive)
GI50 (SR): 37.6 µM (inactive)
GI50 (SW-620): > 100 µM (inactive)
GI50 (TK-10): > 100 µM (inactive)
GI50 (U-251): > 100 µM (inactive)
GI50 (UACC-257): > 100 µM (inactive)
GI50 (UACC-62): > 100 µM (inactive)
GI50 (UO-31): > 100 µM (inactive)
GI50 (XF498): 54.6 µM (inactive)
